We go through 1 compound from patent US20260364101A1, “OLEUROPEIN IN THE MANAGEMENT OF CANCER” (FUNDACIÓN MIGUEL SERVET, priority 2023, published 2026).

Assay [1] deals with CD4 T cells. Description: mixed lymphocyte reaction (MLR) with TAMs as stimulator cells (FIG. 1c,d). Type of assay: cell-based, mouse. The following applies: treated TAMs as stimulators; 5 days. Here is the method:
MLR were carried out following standard procedures. Briefly, 100,000 MDSCs or TAMs from C57BL/6 mice were co-cultured in 96-well plates with 100,000 lymphocytes from BALB/c mice. Co-cultured cells were treated with 50 µM oleuropein and compared with control vehicle. After 5 days, T-lymphocyte activation, differentiation and proliferation were assessed by flow cytometry. T-cell activation and proliferation markers (Ki-67) and pro-inflammatory cytokine production (IL-2 and IFNγ) were evaluated by flow cytometry in CD4 and CD8 T cells as described before.
Surface and intracellular staining were carried out as described before with the following fluorochrome-conjugated antibody clones: AF488 anti-CD49d (R1-2), PE anti-CD4 (GK1.5), APCanti-CD8(53-6.7), brilliant Violet 510™ anti-I-A/I-E (M5/114.15.2,PE/Cyanine7anti-Ly-6G (1A8), and APC anti-CD80 (16-10A1) (Biolegend), FITC anti-IL-12 (C15.6) and BV421 anti-IL-2 (JES6-5H4) (BD Bioscience), APC-Vio® 770 anti-Ly-6C (REA796), PE REAfinity™ anti-F4/80 (REA126), and APC anti-CD68 (REA886) (Miltenyi), PerCP-Cyanine5.5 Anti-Human/Mouse CD11b (M1/70) (Tonbo), and AF488 anti-IFNγ (Clone XMG1.2) (BD Pharmigen). […]

Assay [2] deals with myeloid cells from NSCLC patients. Description: myeloid cells from NSCLC patients treated ex vivo, flow cytometry (FIG. 6a). Format: cell-based, human. Here is the method: Surface and intracellular staining were carried out as described before with the following fluorochrome-conjugated antibody clones: AF488 anti-CD49d (R1-2), PE anti-CD4 (GK1.5), APCanti-CD8(53-6.7), brilliant Violet 510™ anti-I-A/I-E (M5/114.15.2,PE/Cyanine7anti-Ly-6G (1A8), and APC anti-CD80 (16-10A1) (Biolegend), FITC anti-IL-12 (C15.6) and BV421 anti-IL-2 (JES6-5H4) (BD Bioscience), APC-Vio® 770 anti-Ly-6C (REA796), PE REAfinity™ anti-F4/80 (REA126), and APC anti-CD68 (REA886) (Miltenyi), PerCP-Cyanine5.5 Anti-Human/Mouse CD11b (M1/70) (Tonbo), and AF488 anti-IFNγ (Clone XMG1.2) (BD Pharmigen). For human cells, it was used the following fluorochrome-conjugated antibodies: PerCP-Cy5.5-anti-CD11b (integrina alfa M) (M1/70), Violet Fluor 450 anti-CD14 antibody (61D3) (Tonbo), PE anti-CD115 (CSF-1R) (9-4D2-1E4) (Biolegend), PE-Cy™7 anti-CD11c (Clone B-ly6) (BD Bioscience), and APC anti-HLA-DR (REA517) (Miltenyi).
Data were collected using the FACSCanto Flow Cytometer (BD Biosciences) for ex vivo and in vitro experiments at Navarrabiomed Biomedical Research Center and Cyroflex LX flow cytometer (Beckman Counter). Data were analyzed with Flowjo.
Twenty-one patients diagnosed with locally advanced or metastatic NSCLC treated with the immune checkpoint inhibitors (ICI) pembrolizumab (anti-PD-1) were recruited for the study. The characteristics of the cohort under study have been described before, and this observational study was approved by the Ethics Committee of Clinical Investigations at the University Hospital of Navarre (reference number: PI_2020/115). 11 of the patients were chemoresistant. Blood samples from non-small cell lung cancer (NSCLC) patients were collected prior to treatment and before administration of each immunotherapy cycle.
PBMCs were isolated as described and grown in vitro for 24 h in TEXCMACs medium (Miltenyi Biotec). Myeloid cells were obtained by adherence to plastic for 24 h. Then, 50,000 myeloid cells were seeded per well with 50 µM oleuropein in 96-well plates and incubated for seven days.
On the technique in general: Flow cytometry measures light scatter and fluorescence of single cells or particles in a stream.

The mark [3] stands for this setting: oleuropein 50 μM, seven days, N=21 patients.

Consider `C/C=C1/[C@H](O[C@@H]2O[C@H](CO)[C@@H](O)[C@H](O)[C@H]2O)OC=C(C(=O)OC)[C@H]1CC(=O)OCCc1ccc(O)c(O)c1` [oleuropein], for which the “CD4 T cell stimulation assessed by IFNγ and IL-2 production” value in assay [1] is listed as “potently stimulated”. Moreover, the “activation of myeloid cells of subjects suffering lung cancer” value in assay [2] (including anti-PD-1-based therapy resistance) is on record as “induced the activation of myeloid cells”. Besides, in assay [2] (setting [3]), the “CD11b+ cells” value was “increase”, the “expression of CD11c+HLA-DR” value was “elevation”, the “expression of CD14+HLA-DR” value is “elevation” and the “expression of CD115+HLA-DR” value is given as “elevation”.
